Measurements reported in PubChem BioAssay (NCI).
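Each compound was tested at five concentrations against cells in 96-well plates for 48 hours. At the GI50, growth is halved. Definition used: TGI = concentration required for complete inhibition of growth.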

What was measured:
Test in all cases: NCI anticancer screen, dose series, 48 h
NCI-H522 lung = system: NCI-H522 lung
CCRF-CEM leukemia = system: CCRF-CEM leukemia
NCI-H23 lung = system: NCI-H23 lung
TK-10 renal = system: TK-10 renal
T-47D breast = system: T-47D breast
HCC-2998 colon = system: HCC-2998 colon
HCT-15 colon = system: HCT-15 colon
KM12 colon = system: KM12 colon
DU-145 prostate = system: DU-145 prostate
NCI/ADR-RES ovarian = system: NCI/ADR-RES ovarian
NCI-H460 lung = system: NCI-H460 lung
SR leukemia = system: SR leukemia
HL-60(TB) leukemia = system: HL-60(TB) leukemia
SF-268 CNS = system: SF-268 CNS
SK-OV-3 ovarian = system: SK-OV-3 ovarian
SK-MEL-28 melanoma = system: SK-MEL-28 melanoma
HT29 colon = system: HT29 colon
UACC-257 melanoma = system: UACC-257 melanoma
COLO 205 colon = system: COLO 205 colon
SK-MEL-2 melanoma = system: SK-MEL-2 melanoma
U251 CNS = system: U251 CNS
HCT-116 colon = system: HCT-116 colon
NCI-H226 lung = system: NCI-H226 lung
EKVX NSCLC = system: EKVX NSCLC
HS 578T breast = system: HS 578T breast
RPMI-8226 leukemia = system: RPMI-8226 leukemia
IGROV1 ovarian = system: IGROV1 ovarian
SF-295 CNS = system: SF-295 CNS
HOP-62 NSCLC = system: HOP-62 NSCLC
SW-620 colon = system: SW-620 colon
PC-3 prostate = system: PC-3 prostate
ACHN renal = system: ACHN renal
SK-MEL-5 melanoma = system: SK-MEL-5 melanoma
OVCAR-4 ovarian = system: OVCAR-4 ovarian
MDA-MB-231 breast = system: MDA-MB-231 breast
LOX IMVI melanoma = system: LOX IMVI melanoma
SF-539 CNS = system: SF-539 CNS
OVCAR-5 ovarian = system: OVCAR-5 ovarian
K-562 leukemia = system: K-562 leukemia
MCF7 breast = system: MCF7 breast
BT-549 breast = system: BT-549 breast
HOP-92 NSCLC = system: HOP-92 NSCLC
UACC-62 melanoma = system: UACC-62 melanoma
A498 renal = system: A498 renal
M14 melanoma = system: M14 melanoma
MOLT-4 leukemia = system: MOLT-4 leukemia
MDA-MB-468 breast = system: MDA-MB-468 breast
SNB-19 CNS = system: SNB-19 CNS
A549 NSCLC = system: A549 NSCLC
SNB-75 CNS = system: SNB-75 CNS
OVCAR-3 ovarian = system: OVCAR-3 ovarian
MALME-3M melanoma = system: MALME-3M melanoma
RXF 393 renal = system: RXF 393 renal
CAKI-1 renal = system: CAKI-1 renal

For CC(=O)NCC1=C(C)C=C2C(=O)[C@](C)(O)C3(CC3)C(C)=C21, the GI50 (NCI-H522 lung) was 254 nM, the TGI (NCI-H522 lung) was 997 nM and the GI50 (CCRF-CEM leukemia) was 13500 nM. It also gave a TGI (CCRF-CEM leukemia) greater than 84900 nM, a GI50 (NCI-H23 lung) of 15.9 nM and a TGI (NCI-H23 lung) of 37.2 nM. The GI50 (TK-10 renal) was 36.4 nM, the GI50 (T-47D breast) was 43.8 nM and the TGI (T-47D breast) was 840 nM. It also gave a GI50 (HCC-2998 colon) of 28.7 nM, a TGI (HCC-2998 colon) of 103 nM and a GI50 (HCT-15 colon) of 44 nM. The TGI (HCT-15 colon) was 325 nM, the GI50 (KM12 colon) was 257 nM and the TGI (KM12 colon) was 5850 nM. It also gave a GI50 (DU-145 prostate) of 27.5 nM, a TGI (DU-145 prostate) of 233 nM and a GI50 (NCI/ADR-RES ovarian) of 64.8 nM. For the same compound, the TGI (NCI/ADR-RES ovarian) was 323 nM, the GI50 (NCI-H460 lung) was 22.5 nM and the TGI (NCI-H460 lung) was 132 nM. The GI50 (SR leukemia) was 5700 nM, the TGI (SR leukemia) was greater than 100000 nM and the GI50 (HL-60(TB) leukemia) was 27.9 nM. For the same compound, the TGI (HL-60(TB) leukemia) was 876 nM, the GI50 (SF-268 CNS) was 33.2 nM and the TGI (SF-268 CNS) was 577 nM. The GI50 (SK-OV-3 ovarian) was 30.1 nM, the TGI (SK-OV-3 ovarian) was 99.3 nM and the GI50 (SK-MEL-28 melanoma) was 125 nM. For the same compound, the TGI (SK-MEL-28 melanoma) was 293 nM, the GI50 (HT29 colon) was 35.6 nM and the GI50 (UACC-257 melanoma) was 93.4 nM. For the same compound, the TGI (UACC-257 melanoma) was 290 nM, the GI50 (COLO 205 colon) was 39 nM and the TGI (COLO 205 colon) was 162 nM. The GI50 (SK-MEL-2 melanoma) was 179 nM, the TGI (SK-MEL-2 melanoma) was 346 nM and the GI50 (U251 CNS) was 51 nM. For the same compound, the GI50 (HCT-116 colon) was 50.9 nM, the GI50 (NCI-H226 lung) was 143 nM and the TGI (NCI-H226 lung) was 615 nM. The GI50 (EKVX NSCLC) was 116 nM, the TGI (EKVX NSCLC) was 356 nM and the GI50 (HS 578T breast) was 204 nM. It also gave a TGI (HS 578T breast) of 678 nM, a GI50 (RPMI-8226 leukemia) of 22900 nM and a TGI (RPMI-8226 leukemia) greater than 83500 nM. For the same compound, the GI50 (IGROV1 ovarian) was 28 nM, the TGI (IGROV1 ovarian) was 80.4 nM and the GI50 (SF-295 CNS) was 26.2 nM. The TGI (SF-295 CNS) was 122 nM, the GI50 (HOP-62 NSCLC) was 24.6 nM and the TGI (HOP-62 NSCLC) was 76.1 nM. For the same compound, the GI50 (SW-620 colon) was 13400 nM, the TGI (SW-620 colon) was 38700 nM and the GI50 (PC-3 prostate) was 68 nM. For the same compound, the TGI (PC-3 prostate) was 898 nM, the GI50 (ACHN renal) was 22.8 nM and the TGI (ACHN renal) was 57.8 nM. The GI50 (SK-MEL-5 melanoma) was 70.4 nM, the TGI (SK-MEL-5 melanoma) was 216 nM and the GI50 (OVCAR-4 ovarian) was 71 nM. The TGI (OVCAR-4 ovarian) was 322 nM, the GI50 (MDA-MB-231 breast) was 67 nM and the TGI (MDA-MB-231 breast) was 306 nM. It also gave a GI50 (LOX IMVI melanoma) of 136 nM, a TGI (LOX IMVI melanoma) of 354 nM and a GI50 (SF-539 CNS) of 22.5 nM. The TGI (SF-539 CNS) was 56.5 nM, the GI50 (OVCAR-5 ovarian) was 34.2 nM and the TGI (OVCAR-5 ovarian) was 240 nM. It also gave a GI50 (K-562 leukemia) of 15000 nM, a TGI (K-562 leukemia) greater than 100000 nM and a GI50 (MCF7 breast) of 214 nM. It also gave a TGI (MCF7 breast) greater than 20600 nM, a GI50 (BT-549 breast) of 27.7 nM and a TGI (BT-549 breast) of 99.1 nM. It also gave a GI50 (HOP-92 NSCLC) of 26.1 nM, a TGI (HOP-92 NSCLC) of 70.2 nM and a GI50 (UACC-62 melanoma) of 132 nM. For the same compound, the TGI (UACC-62 melanoma) was 278 nM, the GI50 (A498 renal) was 25.7 nM and the TGI (A498 renal) was 65.5 nM. For the same compound, the GI50 (M14 melanoma) was 71.2 nM, the TGI (M14 melanoma) was 220 nM and the GI50 (MOLT-4 leukemia) was 8440 nM. It also gave a TGI (MOLT-4 leukemia) greater than 100000 nM, a GI50 (MDA-MB-468 breast) of less than 13.6 nM and a TGI (MDA-MB-468 breast) of 30.3 nM. It also gave a GI50 (SNB-19 CNS) of 163 nM, a TGI (SNB-19 CNS) of 751 nM and a GI50 (A549 NSCLC) of 31.2 nM. It also gave a TGI (A549 NSCLC) of 330 nM, a GI50 (SNB-75 CNS) of 19.7 nM and a TGI (SNB-75 CNS) of 73.5 nM. It also gave a GI50 (OVCAR-3 ovarian) of 39.7 nM, a TGI (OVCAR-3 ovarian) of 472 nM and a GI50 (MALME-3M melanoma) of 60.2 nM. It also gave a TGI (MALME-3M melanoma) of 181 nM, a GI50 (RXF 393 renal) of 16.4 nM and a TGI (RXF 393 renal) of 32.8 nM. For the same compound, the GI50 (CAKI-1 renal) was 40.4 nM and the TGI (CAKI-1 renal) was 791 nM.
